Test [1] concerns the target T1, glycine receptor binding site of gephyrin (peptide binding site) (Homo sapiens, UniProt Q9NQX3).
T1 sequence (Q9NQX3 1-736): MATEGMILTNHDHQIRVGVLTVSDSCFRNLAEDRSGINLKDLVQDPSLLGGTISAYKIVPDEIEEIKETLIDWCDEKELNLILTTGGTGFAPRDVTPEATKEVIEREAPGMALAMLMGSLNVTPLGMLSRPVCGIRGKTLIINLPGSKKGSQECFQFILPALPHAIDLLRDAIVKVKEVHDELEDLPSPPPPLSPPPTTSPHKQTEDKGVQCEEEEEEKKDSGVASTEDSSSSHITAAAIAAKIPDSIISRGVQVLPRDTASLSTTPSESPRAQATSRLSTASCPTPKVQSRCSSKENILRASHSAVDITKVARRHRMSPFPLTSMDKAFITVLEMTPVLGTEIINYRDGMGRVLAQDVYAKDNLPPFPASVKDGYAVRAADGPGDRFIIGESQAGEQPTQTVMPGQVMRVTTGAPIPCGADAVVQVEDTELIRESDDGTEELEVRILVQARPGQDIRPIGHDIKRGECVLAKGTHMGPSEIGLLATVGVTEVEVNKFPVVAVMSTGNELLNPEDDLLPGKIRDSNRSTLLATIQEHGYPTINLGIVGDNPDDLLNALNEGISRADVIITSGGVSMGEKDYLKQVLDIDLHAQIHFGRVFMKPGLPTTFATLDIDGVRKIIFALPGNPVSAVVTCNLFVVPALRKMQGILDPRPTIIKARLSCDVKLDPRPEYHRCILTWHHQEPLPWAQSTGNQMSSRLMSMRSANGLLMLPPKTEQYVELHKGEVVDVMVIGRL
Put plainly: Affinity of β-bodies to the gephyrin peptide binding site. The settings on record: compared with original peptide SEQ ID NO: 41. The procedure: The following β-body TTVTGTLYPGTLLGFETT (SEQ ID NO: 41) underwent optimization via alanine scanning. The resulting 9 β-bodies were tested for their affinity to the glycine receptor binding site of gephyrin (peptide binding site). The affinity of the original peptide could be improved and optimized β-bodies were found having the following sequences CTVTGTLYPGTLLGFETC (SEQ ID NO: 42) and TTVTGTLYPGTLLGAATT (SEQ ID NO: 43).

In test [2] the test system is Il1. Description: Binding of β-bodies with the target compound (Table 1), Il1. Conditions: Purpose Il1; tested for binding with the target compound.
In a further test the test system is GFP. Conditions: GFP 60 nM, both bead types incubated at the same time. The procedure:
GFP (60 nM) was incubated with different β-body beads at the same time, a first type of β-body beads specific for GFP (β-body SEQ ID NO: 1;
[…]) and a second type of β-body beads specific for IL1 (β-body SEQ ID NO: 5).

Another test deals with Interleukin 1. Description: Sandwich binding assay on PEGA beads, IL1 model. An excerpt: (§1) For sandwich assays β-bodies identified as described in Examples 1 and 2 were synthesized by standard Fmoc-based solid phase peptide synthesis on biocompatible PEGA-beads (e.g. PEGA1900 which has a porosity allowing penetration of proteins up to 70 kDa). PEGA beads are available from Sigma Aldrich.
The intensity of the fluorescence is a measure of the concentration of IL1 and the affinity of the interaction.

Test [3] has as its system Il1. Description: Selectivity assay GFP vs. IL1: beads incubated with ROX-IL1. Format: binding. Conditions: ROX-IL1 100 nM, both bead types incubated at the same time. An excerpt: The same experiment was repeated with IL1.
In the next test the target is interleukin 6 (Homo sapiens, UniProt P05231). Put plainly: Sandwich binding assay on PEGA beads, IL6 model. The procedure: as §1
The sandwich binding assay was performed as follows: two beads with ligand E prepared as described above were contained in separate wells and were added to 50 μL MilliQ water in a microtiter well containing 100 nM of the peptide F. […]
The beads were washed twice with PBS to improve signal to noise. The well was imaged with an ICX73 fluorescence microscope (Olympus) using a ROX filter cube.

The test system of another test is POI. Description: Screening of OBOC β-body library with AMC-labelled POI. The settings on record: POI 10 nM, 2 h incubation; site of interaction not determined. It is filed as binding. Here is the method: The library of K(TX)4PG(XT)4EG was synthesized on HMBA-PEGA1900 resin by the split—mix method essentially as described in Christensen et al, 2003 and was deprotected with 95% TFA. The POI was dissolved in phosphate buffer at pH 7.5, labeled with aminomethylcoumarin using AMC-(CH2)3—CO—OSu (4 eqv, 30 min) and purified by FPLC. […] The protein was dissolved at 100 nM concentration and the library was incubated for 2 h with this solution at 10 fold dilution (10 nM). The library was inspected under a ICX73 fluorescence microscope using a […]. Beads with strong AMC-fluorescence were collected in separate Eppendorph tubes using a microsyringe. The beads were washed and 5% triethylamine in water was added. After incubation overnight the supernatant was transferred to another eppendorph tube and the bead was washed with 70% acetonitril/water. The combined solutions were concentrated to dryness twice using a speedvacc and the residue dissolved in 50% acetonitrile/water. […] The site of interaction on the POI was not determined.

In a further test the target is T2, Gephyrin (Homo sapiens, UniProt Q9NQX3).
T2 sequence (Q9NQX3 1-736): T1 sequence (Q9NQX3 1-736)
Put plainly: Binding of β-bodies with the target compound (Table 1), Gephyrin. Conditions: Purpose Gephyrin; tested for binding with the target compound.

A further test addresses Beads modified with (2). Put plainly: Fluorescent β-bodies incubated with beads modified with (2). It is filed as binding. Conditions: for Kd: bead-(2) with fluorescent β-body; for Binding of fluorescent β-body to beads modified with (2): FIG. 8. Here is the method: (§2) A fluorescent probe was attached to (1), (2) AND (3). The fluorescent β-bodies were then incubated with: • Beads modified with NHAc; or • Beads modified with (1); or • Beads modified with (2).

In the next test the test system is Beads modified with (1). Put plainly: Fluorescent β-bodies incubated with beads modified with (1). Format: binding. Conditions: FIG. 8. The procedure: as §2
[4] abbreviates: ligand 1 beads + 100 nM ligand 2, Interleukin 1 50 nM, 20 min.
Where [5] appears, read: ligand 1 beads + 100 nM ligand 2, without IL1 (interaction between the two β-bodies).

Bridge positions count the residues as written; N and C are the ends. Square brackets hold non-standard residues; d marks the D form. Ends that are not written are not given here. Aha = [N-]=[N+]=NCC[C@H](N)C(=O)O; Pra = C#CC[C@H](N)C(=O)O

interleukin 6, sequence (P05231 30-212, species assumed): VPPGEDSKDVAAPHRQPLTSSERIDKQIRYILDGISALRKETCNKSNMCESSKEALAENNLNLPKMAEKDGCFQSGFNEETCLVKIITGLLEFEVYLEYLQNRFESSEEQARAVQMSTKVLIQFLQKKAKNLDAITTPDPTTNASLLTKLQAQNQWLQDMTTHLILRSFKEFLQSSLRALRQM

With “Abu(N3)-TVTGTLYPGTLLGFET-Pra ([Aha]TVTGTLYPGTLLGFET[Pra]; triazole 1-18 (inferred)) [SEQ ID NO: 44]”, in [1], the “affinity to the glycine receptor binding site of gephyrin” value (“affinity” below) was “unchanged”. Same read-out and setting: the result for “CTVTGTLYPGTLLGFETC (Designed peptide) [SEQ ID NO: 42]” reads “improved”. On to “EPraDTYTETYPGRTITWTIAbu(N3)DG (E[Pra]DTYTETYPGRTITWTI[Aha]DG; triazole 2-19 (inferred)) [SEQ ID NO: 9]”, for which, in the test on Il1 [2], the Binding entry is reported as “High”. For the substance “ETDTYTETYPGYTSTWTITD (Designed peptide) [SEQ ID NO: 5]”, the “Binding of β-body beads to GFP” value in the test with GFP is given as “only β-body beads specific for GFP underwent binding”. Further, the “ROX fluorescence accumulation in the beads” value in the test on Interleukin 1 (setting [4]) is “positive signal”; in the test with Interleukin 1 (ligand 1 beads + 100 nM ligand 2, Interleukin 1 50 nM, 20 min, listed as A), “accumulation of significant ROX fluorescence”; in the test on Interleukin 1 (setting [5]), “no signal”; with Interleukin 1 (ligand 1 beads + 100 nM ligand 2, without IL1 (interaction between the two β-bodies), listed as A), “No fluorescence accumulation over background”. Also, the “Binding of β-body beads to IL1” value in the test on Il1 [3] is “underwent binding”. Regarding “HTWTDTLTRPGYTVTHTLTL (Designed peptide) [SEQ ID NO: 17]”, the “ROX fluorescence accumulation in the bead” value is “accumulation of significant ROX fluorescence” with interleukin 6 (ligand 5 bead + 100 nM ligand 6, interleukin 6 20 nM, 20 min, listed as E); “positive signal” in the test with interleukin 6 (ligand 5 bead + 100 nM ligand 6, interleukin 6 20 nM, 20 min, listed as ligand 5); “No fluorescence accumulation over background” with interleukin 6 (ligand 5 bead + 100 nM ligand 6, without IL6 (interaction between the two β-bodies), listed as E); “no signal” with interleukin 6 (ligand 5 bead + 100 nM ligand 6, without IL6 (interaction between the two β-bodies), listed as ligand 5). Take “KTGTQNLTGPGRTHTQTATEG (Designed peptide; PEPTIDE (1)..(21) GFP) [SEQ ID NO: 3]”: in the test on POI, the “Binding of library beads to AMC-labelled POI (AMC-fluorescence)” value is “strong binding”. Same read-out and setting: the result for “KTQTYNGTGPGRTGTVTYTEG (Designed peptide) [SEQ ID NO: 55]” reads “strong binding”; that for “KTYTYNYTGPGRTSTATLTEG (Designed peptide) [SEQ ID NO: 56]”, “strong binding”. Take “Pra-ITKTARYTMPGKTLTKTGTL-Abu(N3)-G ([Pra]ITKTARYTMPGKTLTKTGTL[Aha]G; triazole 1-22 (inferred)) [SEQ ID NO: 46]”: the Binding result in the test with Gephyrin is recorded as “Medium”. On to “Pra-TVTGTLYPGTLLGFET-Abu(N3) ([Pra]TVTGTLYPGTLLGFET[Aha]; triazole 1-18 (inferred)) [SEQ ID NO: 34]”, for which, in test [1], the “affinity” value is recorded as “unchanged”. Consider “Pra-YTYTDTTPGVTRTLTWG-Abu(N3)-OH ([Pra]YTYTDTTPGVTRTLTWG[Aha]-OH; triazole 1-19 (inferred)) [SEQ ID NO: 38]”, for which the Binding result in the test with Gephyrin was “Medium”.

Turning to “PraTWTLTHTPGTMEITET-Abu(N3)-OH ([Pra]TWTLTHTPGTMEITET[Aha]-OH; triazole 1-18 (inferred)) [SEQ ID NO: 39]”, the Binding result in the test with Gephyrin is given as “Medium”. By Kd is commonly meant the equilibrium constant for the complex coming apart. The low end stands for a tighter complex, the high end for a looser complex. On Beads modified with (2), TFTFTFPGLTRTHT [SEQ ID NO: 59] displayed a dissociation constant Kd of 5000 nM.

In the case of “TITKTARYTMPGKTLTKTGTLTG (Designed peptide) [SEQ ID NO: 45]”, in the test with Gephyrin, the Binding entry was “Medium”. On to “TKTDRVTEPGRTMTFTGT (Designed peptide) [SEQ ID NO: 7]”, for which the “ROX fluorescence accumulation in the beads” value is given as “positive signal” in the test on Interleukin 1 (setting [4]); “accumulation of significant ROX fluorescence” in the test with Interleukin 1 (ligand 1 beads + 100 nM ligand 2, Interleukin 1 50 nM, 20 min, listed as B); “no signal” in the test on Interleukin 1 (setting [5]); “No fluorescence accumulation over background” in the test with Interleukin 1 (ligand 1 beads + 100 nM ligand 2, without IL1 (interaction between the two β-bodies), listed as B). Turning to “TMTDTDTYPGFTDTLTHA (Designed peptide) [SEQ ID NO: 16]”, the “ROX fluorescence accumulation in the bead” value with interleukin 6 (ligand 5 bead + 100 nM ligand 6, interleukin 6 20 nM, 20 min) was “positive signal”; in the test with interleukin 6 (ligand 5 bead + 100 nM ligand 6, interleukin 6 20 nM, 20 min, listed as F) it was “accumulation of significant ROX fluorescence”; in the test with interleukin 6 (ligand 5 bead + 100 nM ligand 6, without IL6 (interaction between the two β-bodies)) it was “no signal”; with interleukin 6 (ligand 5 bead + 100 nM ligand 6, without IL6 (interaction between the two β-bodies), listed as F), “No fluorescence accumulation over background”.

On to “TTVTGTLYPGTLLGAATT (Designed peptide) [SEQ ID NO: 43]”, for which the “affinity” value in test [1] is “improved”. Take “TTYTYPGDTFTI (Designed peptide) [SEQ ID NO: 58]”: the “Binding of fluorescent β-body to beads modified with (1)” value with Beads modified with (1) was “best bind”. Further, the “Binding of fluorescent β-body to beads modified with (2)” value with Beads modified with (2) is “high affinity”. In the case of “TWTETYTWTEPGDTQTLTITNT (Designed peptide) [SEQ ID NO: 11]”, in the test on Il1 [2], the Binding result was “High”. With TYTYTYPGLTRTHT [SEQ ID NO: 57], in the test on Beads modified with (1), the “Binding of fluorescent β-body to beads modified with (1)” value is on record as “high affinity”. Further, in the test with Beads modified with (2), the “Binding of fluorescent β-body to beads modified with (2)” value is listed as “best bind” and the Kd came out at 700 nM.
